Read-outs that look alike come from different tables or passages of the source.
What was measured:
[1] = system: murine experimental allergic encephalomyelitis; details: mouse, in vivo; cited from earlier work
[2] = system: IL-1 beta production by PBMC; experiment: IL-1 beta assay, LPS-stimulated PBMC, sandwich ELISA; assay type: cell-based, human
Procedure: (§1) All reagents were dissolved in 0.5 ml dimethylsulfoxide (hereinafter referred as DMSO) and further diluted in culture medium before use for the following in vitro experiments. The commercially available culture medium consisted of RPMI-1640+10% foetal calf serum (FCS). Peripheral blood mononuclear cells (herein referred as PBMC), in response to stimulation by lipopolysaccharide (LPS), a gram-negative bacterial endotoxin, produce various […], in particular human TNF-alpha and II-1 beta. The inhibition of the activation of PBMC can be measured by the level of suppression of the production of TNF-alpha or IL-1 beta by PBMC in response to stimulation by LPS. Such inhibition measurement was performed as follows: PBMC were isolated from heparinized peripheral blood (Buffy coat) by density gradient centrifugation. LPS is then added to the PMBC suspension in complete medium (10^6 cells/ml) at a final concentration of 1 μg/ml. The compound to be tested was added at different dilution levels, and the cells were incubated at 37° C. for 72 hours. The supernatants were collected, and TNF-alpha or II-1 beta concentrations were measured with respectively an anti-TNF antibody or an anti-IL-1 beta antibody in a sandwich ELISA. The percent inhibition was calculated as: % inhibition=(pg/ml in sample−pg/ml min.)/(pg/ml max.−pg/ml min.)−1 wherein: min.: pg/ml in culture medium without test compound, and • max.: pg/ml in culture medium+LPS without test compound.

[3] = system: TNF-alpha production by PBMC; experiment: TNF-alpha assay, LPS-stimulated PBMC, sandwich ELISA; assay type: cell-based, human
Procedure: as §1

[4] = system: peripheral blood mononuclear cells (PBMC); experiment: Mixed lymphocyte reaction (MLR) test; assay type: cell-based, human
Procedure: All reagents were dissolved in 0.5 ml dimethylsulfoxide (hereinafter referred as DMSO) and further diluted in culture medium before use for the following in vitro experiments. The commercially available culture medium consisted of RPMI-1640+10% foetal calf serum (FCS). Peripheral blood mononuclear cells (hereinafter referred as PBMC) were isolated from heparinized peripheral blood by density gradient centrifugation over Lymphoprep (Nycomed, Maorstua, Norway). Allogeneic PBMC or […]-Barr Virus-transformed human B cells [commercially available under the trade name RPMI1788 (ATCC name CCL156)] which strongly express B7-1 and B7-2 antigens were used as stimulator cells after irradiation with 30 Gy. MLR was performed in triplicate wells. After 5 days incubation at 37° C., 1 μCi [^3H]-thymidine was added to each cup. After a further 16 hours incubation, cells were harvested and counted in a β-counter. Inhibition of proliferation by a compound (drug) described in some of the previous examples was counted using the formula: [formula] wherein cpm is the thymidine count per minute. TNF-Alpha and IL-1 Beta Assays

[5] = system: murine experimental allergic encephalomyelitis; experiment: Murine multiple sclerosis model (experimental allergic encephalomyelitis); assay type: in vivo; details: animals treated in the murine EAE model, 20 mg/kg/day
[6] = system: CD3; details: as disclosed in WO 00/45800; cited from earlier work
[7] = system: lymphocytes; details: as disclosed in WO 00/45800; cited from earlier work
[8] = system: CD 28; details: as disclosed in WO 00/45800; cited from earlier work
[9] = Table 7, same conditions as example 26, read-out: IL1β IC50
[10] = Table 7, same conditions as example 26, read-out: TNFα IC50
[11] = Table 7, same conditions as example 26

Molecule	IC50 [2, 9]	IC50 [3, 10]	IC50 [4, 11]	also measured
O=C1c2c(O)ccc(O)c2C(=O)c2c(NCCNCCO)ccc(NCCNCCO)c21 [mitoxantrone]				heart and kidney toxicity [1]: induces heart and kidney toxicity
Cn1c(=O)[nH]c(=O)c2nc(-c3ccc(F)cc3)c(Cl)nc21 [Example 42, 7-chloro-6-(4-fluorophenyl)-1-methyl-lumazine]	700 nM	4.7 µM	4.8 µM	sign of toxicity [5]: did not show any sign of toxicity
COc1ccc(-c2nc3c(=O)[nH]c(=O)n(C)c3nc2Cl)cc1 [Example 40, 7-chloro-6-(4-methoxyphenyl)-1-methyl-lumazine]	600 nM	0.8 µM	3.3 µM	
CCOC(=O)CCCn1c(=O)c2nc(-c3ccc(OC)cc3)c(F)nc2n(C)c1=O [Example 83, 3-(ethyl butyrate)-7-fluoro-1-methyl-6-(4-methoxyphenyl)-lumazine]	6400 nM	4.9 µM	4.5 µM	
O=c1[nH]c(=O)n(-c2ccccc2)c2nc(Cl)c(-c3ccccc3)nc12 [Example 17, 1,6-diphenyl-7-chloro-lumazine]				IC50 ([2]; Table 2, LPS 1 μg/ml, 72 hours, read-out: IL-1 IC50): 200 nM; IC50 ([3]; Table 2, LPS 1 μg/ml, 72 hours, read-out: TNF IC50): 0.8 µM; IC50 ([4]; Table 2, [3H]-thymidine incorporation after 5 days incubation): 3 µM
COc1cccc(OC)c1-c1nc2c(=O)[nH]c(=O)n(C)c2nc1Cl [Example 44, 7-chloro-(2,6-dimethoxyphenyl)-1-methyl-lumazine]	500 nM	5.9 µM	4.9 µM	
CCOC(=O)CCCn1c(=O)n(C)c(=O)c2nc(-c3ccccc3)c(Cl)nc21 [Example 56, 7-chloro-1-(ethyl butyrate)-3-methyl-6-phenyl-lumazine]	600 nM	0.5 µM	4.9 µM	
Cn1c(=O)n(Cc2ccccc2)c(=O)c2nc(-c3ccccc3)c(Cl)nc21 [Example 59, 7-chloro-3-benzyl-1-methyl-6-phenyl-lumazine]	500 nM	5.3 µM	5 µM	
COc1cccc(-c2nc3c(=O)[nH]c(=O)n(C)c3nc2Cl)c1 [Example 43, 7-chloro-6-(3-methoxyphenyl)-1-methyl-lumazine]	2000 nM	3.7 µM	4.9 µM	
CCOC(=O)CCCn1c(=O)c2nc(-c3ccccc3)c(Cl)nc2n(C)c1=O [Example 55, 7-chloro-3-(ethyl butyrate)-1-methyl-6-phenyl-lumazine]	600 nM	0.5 µM	4.9 µM	
CCn1c(=O)n(CCCC(=O)O)c(=O)c2nc(-c3ccccc3)c(Cl)nc21 [Example 86, 7-chloro-3-(n-butyric acid)-1-ethyl-6-phenyl-lumazine]	2500 nM	8.4 µM	4.6 µM	
CCCNC(=O)CCCn1c(=O)c2nc(-c3ccccc3)c(Cl)nc2n(C)c1=O [Example 92, 7-chloro-1-methyl-6-phenyl-3-(N-propyl 4-butyramido)-lumazine]	1100 nM	5.4 µM	3.4 µM	
COc1ccc(-c2nc3c(nc2C(=O)c2ccccc2)c(=O)n(C)c(=O)n3C)cc1 [1,3-dimethyl-6-benzoyl-7-(4-methoxyphenyl)lumazine]				result in CD3 assay [6]: poor results; result in Mixed Lymphocyte Reaction test [7]: poor results; result in CD 28 assay [8]: poor results
Cn1c(=O)c2nc(-c3ccccc3)c(Cl)nc2n(CCO)c1=O [Example 62, 7-chloro-1-(2-hydroxyethyl)-3-methyl-6-phenyl-lumazine]	600 nM	0.6 µM	2.5 µM	
CCOC(=O)CCCn1c(=O)c2nc(-c3ccc(OC)cc3)c(Cl)nc2n(C)c1=O [Example 73, 7-chloro-3-(ethyl butyrate)-1-methyl-6-(4-methoxyphenyl)-lumazine]	500 nM	0.6 µM	4.9 µM	
Cn1c(=O)c2nc(-c3ccccc3)c(Cl)nc2n(CCc2ccccc2)c1=O [Example 60, 7-chloro-1-(2-phenylethyl)-3-methyl-6-phenyl-lumazine]	4100 nM	5.8 µM	3.5 µM	
CCOC(=O)CCCn1c(=O)c2nc(-c3ccc(OC)c(OC)c3)c(Br)nc2n(C)c1=O [Example 79, 7-bromo-6-(3,4-dimethoxyphenyl)-3-(ethylbutyrate)-1-methyl-lumazine]	200 nM	0.7 µM	4.7 µM	
CCOC(=O)CCCn1c(=O)c2nc(-c3ccc(OC)cc3)c(Br)nc2n(C)c1=O [Example 80, 7-bromo-3-(ethylbutyrate)-1-methyl-6-(4-methoxyphenyl)-lumazine]	6400 nM	2.1 µM	5.6 µM	
Cn1c(=O)n(CCCC(=O)OC(C)(C)C)c(=O)c2nc(-c3ccccc3)c(Cl)nc21 [Example 89, 7-chloro-3-(t-butyl butyrate)-1-methyl-6-phenyl-lumazine]	2100 nM	5.6 µM	4.2 µM	
Cn1c(=O)n(CCN2CCOCC2)c(=O)c2nc(-c3ccccc3)c(Cl)nc21 [Example 74, 7-chloro-1-methyl-3-(2-morpholinoethyl)-6-phenyl-lumazine]	700 nM	2.6 µM	4.2 µM	
7-chloro-3-(chlorophenyl)-1-methyl-lumazine [Example 46]	900 nM	4.7 µM	5.7 µM	
Cn1c(=O)[nH]c(=O)c2nc(-c3ccccc3Cl)c(Cl)nc21 [Example 45, 7-chloro-(2-chlorophenyl)-1-methyl-lumazine]	300 nM	2.3 µM	3.9 µM	
Cn1c(=O)c2nc(-c3ccccc3)c(Cl)nc2n(Cc2ccccc2)c1=O [Example 61, 1-benzyl-7-chloro-3-methyl-6-phenyl-lumazine]	500 nM	0.7 µM	3.7 µM	
CC(C)OC(=O)CCCn1c(=O)c2nc(-c3ccccc3)c(Cl)nc2n(C)c1=O [Example 87, 7-chloro-3-(isopropyl 4-butyrate)-1-methyl-6-phenyl-lumazine]	2800 nM	6.1 µM	5.4 µM	
CCOC(=O)CCCn1c(=O)c2nc(-c3ccccc3)c(Br)nc2n(C)c1=O [Example 70, 7-bromo-3-(ethyl butyrate)-1-methyl-6-phenyl-lumazine]	3500 nM	5.5 µM	5 µM	

— patent US20070043000A1, “Immunosuppresive effects of pteridine derivatives” (priority 2003, published 2007)
